Data reported in BindingDB's records for PubMed 34699207 (National Institute On Drug Abuse?Intramural Research Program, 2021).

Legend:
[1] = biological target: D(3) dopamine receptor (Homo sapiens, UniProt P35462); assay: Displacement of [3H]-(R)-(+)7-OH-DPAT from human dopamine D3 receptor expressed in HEK293 cell membranes incubated for 90 mins by microbeta scintillation counting analysis
[2] = biological target: D(2) dopamine receptor (Homo sapiens, UniProt P14416); assay: Displacement of [3H]-(R)-(+)7-OH-DPAT from human dopamine D2 receptor expressed in HEK293 cell membranes incubated for 90 mins by microbeta scintillation counting analysis
D(2) dopamine receptor, sequence (P14416 whole entry): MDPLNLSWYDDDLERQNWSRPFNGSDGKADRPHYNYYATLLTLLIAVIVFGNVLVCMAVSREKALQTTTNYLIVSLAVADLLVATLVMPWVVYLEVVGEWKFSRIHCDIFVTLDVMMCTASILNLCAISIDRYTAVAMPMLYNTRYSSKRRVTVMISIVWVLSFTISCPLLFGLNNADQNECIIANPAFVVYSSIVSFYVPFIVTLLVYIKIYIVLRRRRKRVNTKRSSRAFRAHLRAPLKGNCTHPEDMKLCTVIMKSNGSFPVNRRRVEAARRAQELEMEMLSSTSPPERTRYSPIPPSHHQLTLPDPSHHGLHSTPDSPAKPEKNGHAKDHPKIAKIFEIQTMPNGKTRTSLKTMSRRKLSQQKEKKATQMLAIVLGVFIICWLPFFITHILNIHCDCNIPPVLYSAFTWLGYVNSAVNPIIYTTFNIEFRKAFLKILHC

D(3) dopamine receptor, sequence (P35462 whole entry): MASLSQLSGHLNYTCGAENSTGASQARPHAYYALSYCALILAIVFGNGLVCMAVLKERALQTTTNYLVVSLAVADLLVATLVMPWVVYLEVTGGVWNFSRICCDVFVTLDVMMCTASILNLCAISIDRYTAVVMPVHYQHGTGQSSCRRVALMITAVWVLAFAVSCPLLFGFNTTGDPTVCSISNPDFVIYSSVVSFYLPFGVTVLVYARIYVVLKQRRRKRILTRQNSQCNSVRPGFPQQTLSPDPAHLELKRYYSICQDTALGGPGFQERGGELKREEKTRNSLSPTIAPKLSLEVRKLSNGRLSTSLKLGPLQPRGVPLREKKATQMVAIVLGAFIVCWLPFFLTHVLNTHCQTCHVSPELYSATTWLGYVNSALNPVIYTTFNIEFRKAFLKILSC

Row | Ki [1] [nM] | Ki [2] [nM] | Structure (SMILES)
1 | 20 | 2 | CN(CC[C@@H]1CC[C@H](CNC(=O)c2cc3ccccc3[nH]2)C1)[C@@H]1Cc2cccc3[nH]c(=O)n(c23)C1
2 | 77 | 4.6 | CN(CC[C@@H]1CC[C@@H](CNC(=O)c2cc3ccccc3[nH]2)C1)[C@@H]1Cc2cccc3[nH]c(=O)n(c23)C1
